Experiment [1] has as its target T1, GR (TAT induction in HepG2 cells) (Homo sapiens, UniProt P04150).
T1 construct: host or cells: HepG2 (human hepatocellular carcinoma)
T1 sequence (P04150 1-777): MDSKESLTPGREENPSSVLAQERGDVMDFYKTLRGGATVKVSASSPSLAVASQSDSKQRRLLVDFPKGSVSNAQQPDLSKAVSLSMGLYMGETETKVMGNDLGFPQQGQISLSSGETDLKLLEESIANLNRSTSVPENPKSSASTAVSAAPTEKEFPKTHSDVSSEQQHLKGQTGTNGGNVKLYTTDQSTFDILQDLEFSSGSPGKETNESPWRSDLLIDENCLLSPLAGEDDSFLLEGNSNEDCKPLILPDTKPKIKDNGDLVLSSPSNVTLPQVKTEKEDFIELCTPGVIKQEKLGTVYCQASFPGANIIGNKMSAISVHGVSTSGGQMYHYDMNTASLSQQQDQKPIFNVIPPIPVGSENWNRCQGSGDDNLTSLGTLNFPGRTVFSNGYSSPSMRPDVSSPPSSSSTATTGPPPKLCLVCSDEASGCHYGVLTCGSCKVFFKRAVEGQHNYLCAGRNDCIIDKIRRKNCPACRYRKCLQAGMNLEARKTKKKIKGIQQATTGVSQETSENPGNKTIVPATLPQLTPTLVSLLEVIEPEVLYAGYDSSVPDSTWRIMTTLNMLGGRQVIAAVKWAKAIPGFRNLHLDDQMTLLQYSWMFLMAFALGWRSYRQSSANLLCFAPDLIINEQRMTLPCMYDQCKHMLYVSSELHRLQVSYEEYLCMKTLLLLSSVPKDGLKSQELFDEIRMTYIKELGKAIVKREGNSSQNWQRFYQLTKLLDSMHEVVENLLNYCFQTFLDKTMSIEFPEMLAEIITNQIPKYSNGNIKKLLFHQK
In words: cell-based. The note with it: read-out: GR functional Ki. The procedure:
Glucocorticoid mediated activation of TAT occurs by transactivation of glucocorticoid response elements in the TAT promoter by glucocorticoid receptor-agonist complex.
TAT activity was measured as outlined in the literature by A. Ali et al., J. Med. Chem., 2004, 47, 2441-2452.
HepG2 cells were cultured using MEME media supplemented with 10% (v/v) foetal bovine serum; 2 mM L-glutamine and 1% (v/v) NEAA at 37° C., 5%/95% (v/v) CO2/air. The HepG2 cells were counted and adjusted to yield a density of 0.125×10^6 cells/ml in RPMI 1640 without phenol red, 10% (v/v) charcoal stripped FBS, 2 mM L-glutamine and seeded at 25,000 cells/well in 200 μl into 96 well, sterile, tissue culture micro titre plates, and incubated at 37° C., 5% CO2 for 24 hours
Growth media was removed and replaced with assay media {RPMI 1640 without phenol red, 2 mM L-glutamine+10 μM forskolin}. […] Compounds were serially half log diluted in 100% (v/v) dimethylsupfoxide from a 10 mM stock.
HepG2 cells were then lysed with 30 μl of cell lysis buffer containing a protease inhibitor cocktail for 15 minutes at 4° C. 155 μl of substrate mixture was then added containing 5.4 mM Tyrosine sodium salt, 10.8 mM alpha ketoglutarate and 0.06 mM pyridoxal 5′ phosphate in 0.1M potassium phosphate buffer (pH 7.4). After 2 hours incubation at 37° C. the reaction was terminated by the addition of 15 μl of 10M aqueous potassium hydroxide solution, and the plates incubated for a further 30 minutes at 37° C. The TAT activity product was measured by absorbance at λ 340 nm.
[compound] and fitting the data to a 4 parameter logistic equation.

For the next experiment, the target named is T2, human recombinant GR (Homo sapiens, UniProt P04150).
T2 construct: purchased PanVera P2812
T2 sequence (P04150 1-777): T1 sequence (P04150 1-777)
In words: Human GR fluorescence polarisation (FP) binding assay (Example 23). The procedure:
The following is a description of a FP assay for measuring compound inhibition of labelled glucocorticoid binding to the human recombinant GR.
The binding affinity of test compounds was determined using a FP binding assay using human recombinant GR (PanVera P2812) and a fluorescent labelled glucocorticoid ligand (Fluorome GS Red) (PanVera P2894). The presence of inhibitors prevents the formation of a GS Red/GR complex resulting in a decrease in the measured polarisation value. The change in polarisation value in the presence of test compounds is used to calculate the binding affinity of the compound for GR.
This assay was performed in 384 well, black, round-bottom, polypropylene micro titre plates in a final volume of 20 μl. The assay contained 5 μl 1 nM GR (final concentration), 5 μl 0.5 nM Fluorome GS Red (final concentration) in the presence of 10 μl test compounds. Positive control wells (high polarisation) receive, 10 μl 2% (v:v) DMSO vehicle (1% (v/v) final concentration)+5 μl 1 nM GR and 5 μl 0.5 nM Fluorome GS Red. […] Assay blank background wells (used for normalisation) receive 15 μl 1×GS screening buffer+5 μl GR.
For the IC50 determination (concentration of compound that displaces 50% of the bound GS Red), compounds were tested at eight different concentrations in duplicate in two independently performed experiments. Compounds were prepared as solubilised solids at 10 mM in DMSO. On the day of assay, an 8 point half-log serial dilution (55 μl DMSO+25 μl compound solution) was prepared. A 1:50 dilution (1 μl compound solution+49 μl 1×GR screening buffer) was prepared for each compound. The compounds were prepared at 2× final assay concentration.
The plates were mixed and incubated for 4 hour at room temperature. FP was measured using an Envision Excite plate reader with 535 nm excitation and 590 nm emission interference filters.
Milli-polarisation (mP) values were calculated using the below equation—
where S and P are assay blank background subtracted fluorescence units, G=G-factor (1.07).
Compound IC50 values were calculated by plotting a [compound] v. % inhibition curve and fitting the data to a 4-parameter logistic fit equation.
Reagents. 10×GR screening buffer (100 mM potassium phosphate pH 7.4, 200 mM Na2MoO4, 1 mM EDTA, 20% (v/v) DMSO). To prepare 1×GR screening buffer, combine 1 ml 10×GR screening buffer (PanVera P2814)+1 ml stabilising peptide (PanVera P2815)+7.95 ml 4° C. MQ water. Add 50 μl 1M DTT, vortex and place on ice until use.

Each structure is given as a SMILES string.

Consider `COC[C@]12Cc3cnn(-c4ccc(F)cc4)c3C=C1CCN(S(=O)(=O)c1ccc(N3CCC(F)(F)C3)cc1)C2` [Example 16, (R)-1-(4-Fluoro-phenyl)-6-[4-(3,3-difluoropyrrolidin-1-yl)-benzenesulfonyl]-4a-methoxymethyl-4,4a,5,6,7,8-hexahydro-1H-1,2,6-triaza-cyclopenta[b]naphthalene], for which the Ki in experiment [1] was above 0.1 µM; on human recombinant GR, below 0.0005 µM.
Consider `COC[C@]12Cc3cnn(-c4ccc(F)cc4)c3C=C1CCN(S(=O)(=O)c1ccc(N3CCC[C@H]3C)cc1)C2` [Example 17, (R)-1-(4-Fluoro-phenyl)-6-[4-((R)-2-methylpyrrolidin-1-yl)-benzenesulfonyl]-4a-methoxymethyl-4,4a,5,6,7,8-hexahydro-1H-1,2,6-triaza-cyclopenta[b]naphthalene], for which the values for the Ki (in experiment [1]; at human recombinant GR) were above 0.1 µM and below 0.0005 µM, respectively.
On the same counts, the results for `COC[C@@H]1CCCN1c1ccc(S(=O)(=O)N2CCC3=Cc4c(cnn4-c4ccc(F)cc4)C[C@]3(COC)C2)cc1` [Example 18, (R)-1-(4-Fluoro-phenyl)-6-[4-((S)-2-(methoxymethyl)pyrrolidin-1-yl)-benzenesulfonyl]-4a-methoxymethyl-4,4a,5,6,7,8-hexahydro-1H-1,2,6-triaza-cyclopenta[b]naphthalene] are 0.05 to 0.1 µM and 0.0005 to 0.001 µM.
Regarding `COC[C@]12Cc3cnn(-c4ccc(F)cc4)c3C=C1CCN(S(=O)(=O)c1ccc(N3CC[C@H](OC)C3)cc1)C2` [Example 19, (R)-1-(4-Fluoro-phenyl)-6-[4-((S)-3-methoxypyrrolidin-1-yl)-benzenesulfonyl]-4a-methoxymethyl-4,4a,5,6,7,8-hexahydro-1H-1,2,6-triaza-cyclopenta[b]naphthalene], the Ki was above 0.1 µM in experiment [1] and below 0.0005 µM on human recombinant GR.
On the same counts, the results for `COC[C@]12Cc3cnn(-c4ccc(F)cc4)c3C=C1CCN(S(=O)(=O)c1ccc(N3CCCCC3)cc1)C2` [Example 20, (R)-1-(4-Fluoro-phenyl)-6-[4-(piperidin-1-yl)-benzenesulfonyl]-4a-methoxymethyl-4,4a,5,6,7,8-hexahydro-1H-1,2,6-triaza-cyclopenta[b]naphthalene] are 0.05 to 0.1 µM and below 0.0005 µM.
In the case of `COC[C@]12Cc3cnn(-c4ccc(F)cc4)c3C=C1CCN(S(=O)(=O)c1ccc(N3CCC(C)(C)C3)cc1)C2` [Example 21, (R)-1-(4-Fluoro-phenyl)-6-[4-(3,3-dimethylpyrrolidin-1-yl)-benzenesulfonyl]-4a-methoxymethyl-4,4a,5,6,7,8-hexahydro-1H-1,2,6-triaza-cyclopenta[b]naphthalene], the Ki in experiment [1] is above 0.1 µM; on human recombinant GR, below 0.0005 µM.
